Data from patent US7820623B2 (priority 2006, dated 2010).
Where two headings read alike, the source gives them in different places. Bridge positions count the residues as written; N and C are the ends. Square brackets hold non-standard residues; d marks the D form. Peptide text beside a SMILES is read from it. 1Nal = N[C@@H](Cc1cccc2ccccc12)C(=O)O

Legend:
[1] = test system: thapsigargin-induced IFN-g production in human whole blood; format: cell-based
[2] = test system: thapsigargin-induced IL-2 production in human whole blood
[3] = read-out: Analogue Activity (IC50) WB/IFNg
[4] = read-out: Analogue Activity (IC50) WB/IL-2

Row | Compound | IC50 [1, 3] [nM] | IC50 [2, 4] [nM] | IC50 ([1]; read-out: Average IC50 IFNg) [nM] | IC50 ([2]; read-out: Average IC50 IL-2) [nM]
1 | CC[C@H](C)[C@@H]1NC(=O)[C@H](CCCCN)NC(=O)[C@@H](NC(=O)[C@H](CCCCN)NC(=O)[C@@H](NC(=O)[C@H](CC(N)=O)NC(=O)[C@@H](NC(=O)[C@@H](NC(=O)[C@@H](NC(=O)CN)C(C)C)[C@@H](C)CC)[C@@H](C)CC)C(C)C)CSSC[C@@H]2NC(=O)[C@H](CCCNC(=N)N)NC(=O)CNC(=O)[C@H](Cc3ccccc3)NC(=O)[C@H](CCCNC(=N)N)NC(=O)[C@H](CCSC)NC(=O)CNC(=O)[C@H](C)NC(=O)[C@H](CCCCN)NC(=O)[C@H](CCCCN)NC(=O)[C@@H]3CSSC[C@@H](C(=O)N[C@H](C(=O)N4CCC[C@H]4C(=O)N[C@@H](CCCCN)C(=O)O)[C@@H](C)O)NC(=O)[C@H](Cc4c[nH]cn4)NC(=O)[C@H](CSSC[C@H](NC(=O)[C@H](CCC(N)=O)NC(=O)[C@H](CCCNC(=N)N)NC(=O)[C@H](CO)NC1=O)C(=O)N[C@@H](CC(C)C)C(=O)N[C@@H](CCC(=O)O)C(=O)N1CCC[C@H]1C(=O)N3)NC(=O)[C@H](CCCCN)NC(=O)CNC(=O)[C@H](CC(N)=O)NC(=O)[C@H](CCSC)NC2=O [K27R] (H-GVIINVKCKISRQCLEPCKKAGMRFGRCMNGKCHCTPK-OH; disulfide 8-28, 14-33, 18-35) | 10.7 | 15.1 | – | –
2 | CC[C@H](C)[C@@H]1NC(=O)[C@H](CCCCN)NC(=O)[C@@H](NC(=O)[C@H](CCCCN)NC(=O)[C@@H](NC(=O)[C@H](Cc2cccc3ccccc23)NC(=O)[C@@H](NC(=O)[C@@H](NC(=O)[C@@H](NC(=O)CN)C(C)C)[C@@H](C)CC)[C@@H](C)CC)C(C)C)CSSC[C@@H]2NC(=O)[C@H](CCCCN)NC(=O)CNC(=O)[C@H](Cc3ccccc3)NC(=O)[C@H](CCCNC(=N)N)NC(=O)[C@H](CCSC)NC(=O)CNC(=O)[C@H](C)NC(=O)[C@H](CCCCN)NC(=O)[C@H](CCCCN)NC(=O)[C@@H]3CSSC[C@@H](C(=O)N[C@H](C(=O)N4CCC[C@H]4C(=O)N[C@@H](CCCCN)C(=O)O)[C@@H](C)O)NC(=O)[C@H](Cc4c[nH]cn4)NC(=O)[C@H](CSSC[C@H](NC(=O)[C@H](CCC(N)=O)NC(=O)[C@H](CCCNC(=N)N)NC(=O)[C@H](CO)NC1=O)C(=O)N[C@@H](CC(C)C)C(=O)N[C@@H](CCC(=O)O)C(=O)N1CCC[C@H]1C(=O)N3)NC(=O)[C@H](CCCCN)NC(=O)CNC(=O)[C@H](CC(N)=O)NC(=O)[C@H](CCSC)NC2=O [N5Nal] (H-GVII[1Nal]VKCKISRQCLEPCKKAGMRFGKCMNGKCHCTPK-OH; disulfide 8-28, 14-33, 18-35) | 0.431 | 0.76 | – | –
3 | GVIINVKCKISRACLEPCKKAGMRFGKCMNGKCHCTPK [Ala-13 (SEQ ID No: 1411)] | – | – | 0.133 | 0.148
4 | CC[C@H](C)[C@@H]1NC(=O)[C@H](CCCCN)NC(=O)[C@@H](NC(=O)[C@H](CCCCN)NC(=O)[C@@H](NC(=O)[C@H](CC(N)=O)NC(=O)[C@@H](NC(=O)[C@@H](NC(=O)[C@@H](NC(=O)[C@@H](N)CCCNC(=N)N)C(C)C)[C@@H](C)CC)[C@@H](C)CC)C(C)C)CSSC[C@@H]2NC(=O)[C@H](CCCCN)NC(=O)CNC(=O)[C@H](Cc3ccccc3)NC(=O)[C@H](CCCNC(=N)N)NC(=O)[C@H](CCSC)NC(=O)CNC(=O)[C@H](C)NC(=O)[C@H](CCCCN)NC(=O)[C@H](CCCCN)NC(=O)[C@@H]3CSSC[C@@H](C(=O)N[C@H](C(=O)N4CCC[C@H]4C(=O)N[C@@H](CCCCN)C(=O)O)[C@@H](C)O)NC(=O)[C@H](Cc4c[nH]cn4)NC(=O)[C@H](CSSC[C@H](NC(=O)[C@H](CCC(N)=O)NC(=O)[C@H](CCCNC(=N)N)NC(=O)[C@H](CO)NC1=O)C(=O)N[C@@H](CC(C)C)C(=O)N[C@@H](CCC(=O)O)C(=O)N1CCC[C@H]1C(=O)N3)NC(=O)[C@H](CCCCN)NC(=O)CNC(=O)[C@H](CC(N)=O)NC(=O)[C@H](CCSC)NC2=O [G1R] (H-RVIINVKCKISRQCLEPCKKAGMRFGKCMNGKCHCTPK-OH; disulfide 8-28, 14-33, 18-35) | 0.991 | 0.554 | – | –
5 | CC[C@H](C)[C@@H]1NC(=O)[C@H](CCCCN)NC(=O)[C@@H](NC(=O)[C@H](CCCCN)NC(=O)[C@@H](NC(=O)[C@H](CCCNC(=N)N)NC(=O)[C@@H](NC(=O)[C@@H](NC(=O)[C@@H](NC(=O)CN)C(C)C)[C@@H](C)CC)[C@@H](C)CC)C(C)C)CSSC[C@@H]2NC(=O)[C@H](CCCCN)NC(=O)CNC(=O)[C@H](Cc3ccccc3)NC(=O)[C@H](CCCNC(=N)N)NC(=O)[C@H](CCSC)NC(=O)CNC(=O)[C@H](C)NC(=O)[C@H](CCCCN)NC(=O)[C@H](CCCCN)NC(=O)[C@@H]3CSSC[C@@H](C(=O)N[C@H](C(=O)N4CCC[C@H]4C(=O)N[C@@H](CCCCN)C(=O)O)[C@@H](C)O)NC(=O)[C@H](Cc4c[nH]cn4)NC(=O)[C@H](CSSC[C@H](NC(=O)[C@H](CCC(N)=O)NC(=O)[C@H](CCCNC(=N)N)NC(=O)[C@H](CO)NC1=O)C(=O)N[C@@H](CC(C)C)C(=O)N[C@@H](CCC(=O)O)C(=O)N1CCC[C@H]1C(=O)N3)NC(=O)[C@H](CCCCN)NC(=O)CNC(=O)[C@H](CC(N)=O)NC(=O)[C@H](CCSC)NC2=O [N5R] (H-GVIIRVKCKISRQCLEPCKKAGMRFGKCMNGKCHCTPK-OH; disulfide 8-28, 14-33, 18-35) | 0.12 | 0.095 | – | –
6 | CC[C@H](C)[C@@H]1NC(=O)[C@H](CCCCN)NC(=O)[C@@H](NC(=O)[C@H](CCCCN)NC(=O)[C@H](CCC(=O)O)NC(=O)[C@H](CC(N)=O)NC(=O)[C@@H](NC(=O)[C@@H](NC(=O)[C@@H](NC(=O)CN)C(C)C)[C@@H](C)CC)[C@@H](C)CC)CSSC[C@@H]2NC(=O)[C@H](CCCCN)NC(=O)CNC(=O)[C@H](Cc3ccccc3)NC(=O)[C@H](CCCNC(=N)N)NC(=O)[C@H](CCSC)NC(=O)CNC(=O)[C@H](C)NC(=O)[C@H](CCCCN)NC(=O)[C@H](CCCCN)NC(=O)[C@@H]3CSSC[C@@H](C(=O)N[C@H](C(=O)N4CCC[C@H]4C(=O)N[C@@H](CCCCN)C(=O)O)[C@@H](C)O)NC(=O)[C@H](Cc4c[nH]cn4)NC(=O)[C@H](CSSC[C@H](NC(=O)[C@H](CCC(N)=O)NC(=O)[C@H](CCCNC(=N)N)NC(=O)[C@H](CO)NC1=O)C(=O)N[C@@H](CC(C)C)C(=O)N[C@@H](CCC(=O)O)C(=O)N1CCC[C@H]1C(=O)N3)NC(=O)[C@H](CCCCN)NC(=O)CNC(=O)[C@H](CC(N)=O)NC(=O)[C@H](CCSC)NC2=O [V6E] (H-GVIINEKCKISRQCLEPCKKAGMRFGKCMNGKCHCTPK-OH; disulfide 8-28, 14-33, 18-35) | 0.068 | 0.048 | – | –
7 | CC[C@H](C)[C@@H]1NC(=O)[C@H](CCCCN)NC(=O)[C@@H](NC(=O)[C@H](CCCCN)NC(=O)[C@@H](NC(=O)[C@H](CC(N)=O)NC(=O)[C@@H](NC(=O)[C@@H](NC(=O)[C@@H](NC(=O)CN)C(C)C)[C@@H](C)CC)[C@@H](C)CC)C(C)C)CSSC[C@@H]2NC(=O)[C@H](CCCCN)NC(=O)CNC(=O)[C@H](Cc3ccccc3)NC(=O)[C@H](CCCNC(=N)N)NC(=O)[C@H](CCSC)NC(=O)CNC(=O)[C@H](C)NC(=O)[C@H](CCCCN)NC(=O)[C@H](CCCCN)NC(=O)[C@@H]3CSSC[C@@H](C(=O)N[C@H](C(=O)N4CCC[C@H]4C(=O)N[C@@H](CCCCN)C(=O)O)[C@@H](C)O)NC(=O)[C@H](Cc4c[nH]cn4)NC(=O)[C@H](CSSC[C@H](NC(=O)[C@H](CCC(N)=O)NC(=O)[C@H](CCCNC(=N)N)NC(=O)[C@H](CO)NC1=O)C(=O)N[C@@H](CC(C)C)C(=O)N[C@@H](Cc1cccc4ccccc14)C(=O)N1CCC[C@H]1C(=O)N3)NC(=O)[C@H](CCCCN)NC(=O)CNC(=O)[C@H](CC(N)=O)NC(=O)[C@H](CCSC)NC2=O [E16Nal] (H-GVIINVKCKISRQCL[1Nal]PCKKAGMRFGKCMNGKCHCTPK-OH; disulfide 8-28, 14-33, 18-35) | 1.51 | 1.02 | – | –
